Results published in patent US20250230193A1, “CYCLIC COMPOUND HAVING SELECTIVE KRAS INHIBITORY EFFECT ON HRAS AND NRAS” (CHUGAI SEIYAKU KABUSHIKI KAISHA, priority 2022, published 2025).
*1 amine or outer side, *2 acyl side, *3 side chain or, on linkers, in order; H or OH if unused. Where a SMILES comes first, the peptide text is derived from it. Bridges are numbered along the chain shown (N, C = ends). [ ]: non-standard residue; d: D form. The star is where a group is joined. hPhe(3-Cl-4-CF3) = N[C@@H](CCc1ccc(C(F)(F)F)c(Cl)c1)C(=O)O; X26 = COCCCN([C@@H](Cc1ccc(C)cc1)C(=O)[*:2])[*:1]; NMeGly(cPent) = CN[C@H](C(=O)O)C1CCCC1; NMeD = CN[C@@H](CC(=O)O)C(=O)O; NMeL = CN[C@@H](CC(C)C)C(=O)O; Morpholide = C1CN(*)CCO1; Ac5c = NC1(C(=O)O)CCCC1; Sar = CNCC(=O)O

Legend:
[1] = target: GDP-bound NRAS wild-type protein (Homo sapiens, UniProt P01111); assay: Binding to NRAS by surface plasmon resonance (SPR), Single Cycle Kinetics; details: SPR; for NRAS/KRAS (ratio of KD value with respect to NRAS to KD value with respect to KRAS): GDP-bound NRAS wild-type vs GDP-bound KRAS wild-type
Sequence of GDP-bound NRAS wild-type protein (P01111 whole entry): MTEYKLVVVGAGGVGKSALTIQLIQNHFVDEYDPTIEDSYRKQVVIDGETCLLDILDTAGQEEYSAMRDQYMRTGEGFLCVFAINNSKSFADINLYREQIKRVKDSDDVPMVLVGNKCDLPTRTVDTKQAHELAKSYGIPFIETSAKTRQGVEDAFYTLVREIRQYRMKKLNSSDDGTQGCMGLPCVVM

[2] = target: GDP-bound HRAS wild-type protein (Homo sapiens, UniProt P01112); assay: Binding to HRAS by surface plasmon resonance (SPR), Single Cycle Kinetics; details: SPR; for HRAS/KRAS (ratio of KD value with respect to HRAS to KD value with respect to KRAS): GDP-bound HRAS wild-type vs GDP-bound KRAS wild-type
Sequence of GDP-bound HRAS wild-type protein (P01112 whole entry): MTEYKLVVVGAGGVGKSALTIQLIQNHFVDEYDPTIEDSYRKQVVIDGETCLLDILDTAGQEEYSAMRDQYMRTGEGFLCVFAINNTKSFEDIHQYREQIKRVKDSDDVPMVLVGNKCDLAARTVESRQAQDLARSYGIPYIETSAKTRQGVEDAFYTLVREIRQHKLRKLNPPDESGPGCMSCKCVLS

[3] = KD ratio NRAS/KRAS, GDP-bound wild-type proteins
[4] = KD ratio HRAS/KRAS, GDP-bound wild-type proteins

With `CCO[C@@H]1C[C@H]2C(=O)NC3(CC(C)(C)C3)C(=O)N(C)[C@@H](C(CC)CC)C(=O)N(C)[C@H](C(=O)N(C)C)CC(=O)N(C)[C@H]3CCCCC/C=C/c4ccc(cc4)C[C@@H](C(=O)N(C)CC(=O)N[C@@H](CCc4cc(F)c(C(F)(F)F)c(F)c4)C(=O)N2C1)N1CC/C=C\C[C@@H](C1=O)N(C)C(=O)CN(C)C(=O)[C@H]([C@@H](C)CC)NC3=O` [PP3048] the “NRAS/KRAS (ratio of KD value with respect to GDP-bound NRAS wild-type protein to KD value with respect to KRAS)” value [1, 3] was “A (a compound having 10 or more and less than 20 is denoted as A)” and the “HRAS/KRAS (ratio of KD value with respect to GDP-bound HRAS wild-type protein to KD value with respect to KRAS)” value [2, 4] was “A (a compound having 10 or more and less than 20 is denoted as A)”.
For `CC[C@H](C)[C@@H]1NC(=O)[C@H](CC(C)C)N(C)C(=O)C[C@@H](C(=O)N2CCOCC2)N(C)C(=O)[C@H](C2CCCC2)N(C)C(=O)C2(CCCC2)NC(=O)[C@@H]2CCCN2C(=O)[C@H](CCc2ccc(C(F)(F)F)c(Cl)c2)NC(=O)CN(C)C(=O)[C@H](Cc2ccc(OC(F)(F)F)cc2)N2CC=CC[C@@H](C2=O)N(C)C(=O)CN(C)C1=O` [PP0537], the “NRAS/KRAS (ratio of KD value with respect to GDP-bound NRAS wild-type protein to KD value with respect to KRAS)” value ([1]; KD ratio NRAS/KRAS) was “C (A compound having a KD ratio of 0.1 or more and less than 3 is denoted as C)” and the “HRAS/KRAS (ratio of KD value with respect to GDP-bound HRAS wild-type protein to KD value with respect to KRAS)” value ([2]; KD ratio HRAS/KRAS) was “C (A compound having a KD ratio of 0.1 or more and less than 3 is denoted as C)”.
With `CCC[C@H]1C(=O)N[C@@H]([C@@H](C)CC)C(=O)N(C)CC(=O)N(C)[C@H]2C/C=C\CCN(C2=O)[C@@H](Cc2ccc(C(F)(F)F)cc2)C(=O)N(C)CC(=O)N[C@@H](CCc2cc(F)c(C(F)(F)F)c(F)c2)C(=O)N2C[C@H](OCC)C[C@H]2C(=O)N(C)C2(CCC2)C(=O)N(C)[C@@H](C2CCCC2)C(=O)N(C)[C@H](C(=O)N2CCCC2)CC(=O)N1C` [PP3120, (2S,8S,12R,14S,20S,23S,27S,30S,36S,38Z)-20-cyclopentyl-8-[2-[3,5-difluoro-4-(trifluoromethyl)phenyl]ethyl]-12-ethoxy-4,16,19,22,26,32,35-heptamethyl-30-[(1S)-1-methylpropyl]-27-propyl-23-(pyrrolidine-1-carbonyl)-2-[[4-(trifluoromethyl)phenyl]methyl]spiro[1,4,7,10,16,19,22,26,29,32,35-undecazatricyclo[34.5.1.0^10,14]dotetracont-38-ene-17,1′-cyclobutane]-3,6,9,15,18,21,25,28,31,34,42-undecone] the “NRAS/KRAS (ratio of KD value with respect to GDP-bound NRAS wild-type protein to KD value with respect to KRAS)” value [1, 3] was “AA (a compound having 20 or more is denoted as AA)” and the “HRAS/KRAS (ratio of KD value with respect to GDP-bound HRAS wild-type protein to KD value with respect to KRAS)” value [2, 4] was “A (a compound having 10 or more and less than 20 is denoted as A)”.
`CCO[C@@H]1C[C@H]2C(=O)NC3(CC(C)(C)C3)C(=O)N(C)[C@@H](C(CC)CC)C(=O)N(C)[C@H](C(=O)N(C)C)CC(=O)N(C)[C@@H](C(C)C)C(=O)N[C@@H]([C@@H](C)CC)C(=O)N(C)CC(=O)N(C)[C@H]3C/C=C\CCN(C3=O)[C@@H](Cc3ccc(C)cc3)C(=O)N(C)CC(=O)N[C@@H](CCc3ccc(C(F)(F)F)c(Cl)c3)C(=O)N2C1` [PP2158] was tested, and the “NRAS/KRAS (ratio of KD value with respect to NRAS to KD value with respect to KRAS)” value [1] was “AA (a compound having 20 or more is denoted as AA)” and the “HRAS/KRAS (ratio of KD value with respect to HRAS to KD value with respect to KRAS)” value [2] was “A (a compound having 10 or more and less than 20 is denoted as A)”.
In the case of `CC[C@H](C)[C@@H]1NC(=O)[C@H](CC(C)C)N(C)C(=O)C[C@@H](C(=O)N2CCOCC2)N(C)C(=O)[C@H](C2CCCC2)N(C)C(=O)C2(CCCC2)NC(=O)[C@@H]2CCCN2C(=O)[C@H](CCc2ccc(C(F)(F)F)c(Cl)c2)NC(=O)CN(C)C(=O)[C@H](Cc2ccc(C)cc2)N(CCCOC)C(=O)CN(C)C(=O)CN(C)C1=O` [PP0105] ([NMeL]I[Sar][Sar][X26][Sar][hPhe(3-Cl-4-CF3)]P[Ac5c][NMeGly(cPent)][NMeD]-Morpholide; lactam N-11), the “NRAS/KRAS (ratio of KD for GDP-bound NRAS wild-type to KD for KRAS)” value ([1]; KD ratio NRAS/KRAS) is reported as “B (a compound having 3 or more and less than 10 is denoted as B)” and the “HRAS/KRAS (ratio of KD for GDP-bound HRAS wild-type to KD for KRAS)” value ([2]; KD ratio HRAS/KRAS) is reported as “C (A compound having a KD ratio of 0.1 or more and less than 3 is denoted as C)”.
`CCO[C@@H]1C[C@H]2C(=O)NC3(CCC3)C(=O)N(C)[C@@H](C3CCCC3)C(=O)N(C)[C@H](C(=O)N3CCOCC3)CC(=O)N(C)[C@@H](CC(C)C)C(=O)N[C@@H]([C@@H](C)CC)C(=O)N(C)CC(=O)N(C)[C@H]3CC(C)=CCN(C3=O)[C@@H](Cc3ccc(C(F)(F)F)cc3)C(=O)N(C)CC(=O)N[C@@H](CCc3cc(F)c(C(F)(F)F)c(F)c3)C(=O)N2C1` [PP1039] was tested, and the “NRAS/KRAS (ratio of KD value with respect to NRAS to KD value with respect to KRAS)” value ([1]; KD ratio) was “C (A compound having a KD ratio of 0.1 or more and less than 3 is denoted as C)” and the “HRAS/KRAS (ratio of KD value with respect to HRAS to KD value with respect to KRAS)” value ([2]; KD ratio) was “C (A compound having a KD ratio of 0.1 or more and less than 3 is denoted as C)”.
With `CCC[C@H]1C(=O)N[C@@H](C2CCOCC2)C(=O)N(C)CC(=O)N(C)[C@H]2C/C=C\CCN(C2=O)[C@@H](Cc2ccc(C(F)(F)F)cc2)C(=O)N(C)CC(=O)N[C@@H](CCc2ccc(C(F)(F)F)c(Cl)c2)C(=O)N2C[C@H](OCC)C[C@H]2C(=O)NC2(CC(C)(C)C2)C(=O)N(C)[C@@H](CC(C)(C)C)C(=O)N(C)[C@H](C(=O)N(C)C)CC(=O)N1C` [PP3022] the “NRAS/KRAS (ratio of KD value with respect to GDP-bound NRAS wild-type protein to KD value with respect to KRAS)” value [1, 3] was “AA (a compound having 20 or more is denoted as AA)” and the “HRAS/KRAS (ratio of KD value with respect to GDP-bound HRAS wild-type protein to KD value with respect to KRAS)” value [2, 4] was “A (a compound having 10 or more and less than 20 is denoted as A)”.
